Reference: ChEMBL document CHEMBL1201862, “PubChem BioAssay data set” (2004)
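Compound exposure: 48 hours, 5 concentrations, 96-well plates. GI50 marks 50% less growth.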 Activity calls are given as the source filed them. Rule as the data show it: active = GI50 up to about 1.1 µM and inactive = higher.

Columns and labels:
Experiment in all cases: inhibition of tumour cell growth, NCI panel, 48 h
[1] = test system: A498
[2] = test system: CAKI-1
[3] = test system: COLO 205
[4] = test system: HCC 2998
[5] = test system: HCT-116
[6] = test system: HCT-15
[7] = test system: HOP-62
[8] = test system: HT-29
[9] = test system: MOLT-4
[10] = test system: NCI-H460
[11] = test system: OVCAR-4
[12] = test system: OVCAR-5
[13] = test system: OVCAR-8
[14] = test system: SF-539
[15] = test system: SN12C
[16] = test system: SNB-19
[17] = test system: SR
[18] = test system: UO-31
[19] = test system: SNB-75

N#CC1(O)CCCCCCCCCCC1
GI50 [1]: > 100 µM (inactive) | GI50 [2]: > 100 µM (inactive) | GI50 [3]: > 100 µM (inactive) | GI50 [4]: > 100 µM (inactive) | GI50 [5]: > 100 µM (inactive) | GI50 [6]: > 100 µM | GI50 [7]: > 100 µM (inactive) | GI50 [8]: > 100 µM (inactive) | GI50 [9]: > 100 µM (inactive) | GI50 [10]: > 100 µM (inactive) | GI50 [11]: > 100 µM (inactive) | GI50 [12]: > 100 µM (inactive) | GI50 [13]: > 100 µM (inactive) | GI50 [14]: > 100 µM (inactive) | GI50 [15]: > 100 µM (inactive) | GI50 [16]: > 100 µM (inactive) | GI50 [17]: > 100 µM (inactive) | GI50 [18]: > 100 µM (inactive)

CCC(C(=O)C(=O)C(CC)P1(=O)OC(C)(C)CN1C(C)(C)C)P1(=O)OC(C)(C)CN1C(C)(C)C (stereo unspecified)
GI50 [1]: > 100 µM (inactive) | GI50 [2]: > 100 µM (inactive) | GI50 [3]: > 100 µM (inactive) | GI50 [4]: > 100 µM (inactive) | GI50 [5]: > 100 µM (inactive) | GI50 [6]: > 100 µM | GI50 [7]: > 100 µM (inactive) | GI50 [8]: > 100 µM (inactive) | GI50 [9]: 22.2 µM (inactive) | GI50 [10]: > 100 µM (inactive) | GI50 [13]: > 100 µM (inactive) | GI50 [14]: > 100 µM (inactive) | GI50 [15]: > 100 µM (inactive) | GI50 [16]: > 100 µM (inactive) | GI50 [19]: 49.7 µM (inactive) | GI50 [17]: 60.4 µM (inactive) | GI50 [18]: > 100 µM (inactive)

NC1=Nc2cc(Cl)ccc2Sc2nc3ccccc3n21
GI50 [1]: > 100 µM (inactive) | GI50 [2]: > 100 µM (inactive) | GI50 [3]: 2.5 µM (inactive) | GI50 [4]: > 100 µM (inactive) | GI50 [5]: 1.87 µM (inactive) | GI50 [6]: > 100 µM | GI50 [7]: > 86.3 µM (inactive) | GI50 [8]: 4.53 µM (inactive) | GI50 [9]: 2.61 µM (inactive) | GI50 [10]: 4.13 µM (inactive) | GI50 [11]: > 20.8 µM (inactive) | GI50 [13]: 5.09 µM (inactive) | GI50 [14]: > 100 µM (inactive) | GI50 [15]: > 100 µM (inactive) | GI50 [16]: 22.2 µM (inactive) | GI50 [19]: 21.4 µM (inactive) | GI50 [17]: 2.64 µM (inactive) | GI50 [18]: > 100 µM (inactive)

COc1ccc2nc3ccc(OC)cc3c(SCc3ccccc3)c2c1
GI50 [1]: > 100 µM (inactive) | GI50 [2]: > 100 µM (inactive) | GI50 [3]: > 86.3 µM (inactive) | GI50 [4]: 38.8 µM (inactive) | GI50 [5]: > 74 µM (inactive) | GI50 [6]: > 95.5 µM | GI50 [7]: > 100 µM (inactive) | GI50 [8]: > 100 µM (inactive) | GI50 [9]: > 41.6 µM (inactive) | GI50 [10]: > 89.1 µM (inactive) | GI50 [11]: > 100 µM (inactive) | GI50 [12]: > 100 µM (inactive) | GI50 [13]: > 84.1 µM (inactive) | GI50 [14]: > 89.3 µM (inactive) | GI50 [15]: > 100 µM (inactive) | GI50 [16]: > 100 µM (inactive) | GI50 [19]: > 88.7 µM (inactive) | GI50 [17]: > 32.9 µM (inactive)

N=C(N)NCCN1CCCCCc2ccccc21
GI50 [1]: > 10 µM (inactive) | GI50 [2]: > 10 µM (inactive) | GI50 [3]: > 10 µM (inactive) | GI50 [4]: > 10 µM (inactive) | GI50 [5]: > 10 µM (inactive) | GI50 [6]: > 10 µM | GI50 [7]: > 10 µM (inactive) | GI50 [8]: > 10 µM (inactive) | GI50 [9]: > 10 µM (inactive) | GI50 [10]: > 10 µM (inactive) | GI50 [11]: > 10 µM (inactive) | GI50 [12]: > 10 µM (inactive) | GI50 [13]: > 10 µM (inactive) | GI50 [14]: > 10 µM (inactive) | GI50 [15]: > 10 µM (inactive) | GI50 [16]: > 10 µM (inactive) | GI50 [19]: 3.48 µM (inactive) | GI50 [17]: > 10 µM (inactive)

N#C/N=C(/N)c1sc2nc3c(c(-c4ccc(Br)cc4)c2c1N)CCCC3
GI50 [1]: 16.1 µM (inactive) | GI50 [2]: 14.5 µM (inactive) | GI50 [3]: 14.4 µM (inactive) | GI50 [4]: 22.1 µM (inactive) | GI50 [5]: 9.02 µM (inactive) | GI50 [6]: 10.2 µM | GI50 [8]: 18.5 µM (inactive) | GI50 [9]: 11.7 µM (inactive) | GI50 [10]: 21.1 µM (inactive) | GI50 [11]: 3.21 µM (inactive) | GI50 [12]: 34.3 µM (inactive) | GI50 [13]: 24.8 µM (inactive) | GI50 [14]: 22.1 µM (inactive) | GI50 [15]: 21.5 µM (inactive) | GI50 [16]: 33.4 µM (inactive) | GI50 [17]: 2.64 µM (inactive) | GI50 [18]: 19.9 µM (inactive)

CC(C)(C)C1CCC2c3c([nH]c4ccccc34)C3C(=O)N(c4cc(Br)cc(Br)c4)C(=O)C3C2C1 (stereo unspecified)
GI50 [1]: 19.7 µM (inactive) | GI50 [2]: 13.7 µM (inactive) | GI50 [3]: 19.6 µM (inactive) | GI50 [4]: 5.05 µM (inactive) | GI50 [5]: 4.34 µM (inactive) | GI50 [6]: 25.4 µM | GI50 [7]: 18.7 µM (inactive) | GI50 [8]: 9.89 µM (inactive) | GI50 [9]: 5.26 µM (inactive) | GI50 [10]: 6.43 µM (inactive) | GI50 [11]: 10.1 µM (inactive) | GI50 [12]: 31.6 µM (inactive) | GI50 [13]: 16 µM (inactive) | GI50 [14]: 16.7 µM (inactive) | GI50 [15]: 6.82 µM (inactive) | GI50 [17]: 7.89 µM (inactive) | GI50 [18]: 6.97 µM (inactive)

CCOC(=O)[C@@H]1ON2O[C@H](OC3CCCCC3c3ccccc3)C[C@H]3OC(=O)[C@@H]1C32 (stereo partly specified)
GI50 [1]: > 100 µM (inactive) | GI50 [2]: > 100 µM (inactive) | GI50 [3]: > 100 µM (inactive) | GI50 [4]: 64.6 µM (inactive) | GI50 [5]: > 100 µM (inactive) | GI50 [6]: > 100 µM | GI50 [7]: > 100 µM (inactive) | GI50 [8]: > 100 µM (inactive) | GI50 [9]: > 100 µM (inactive) | GI50 [10]: 39.8 µM (inactive) | GI50 [12]: > 100 µM (inactive) | GI50 [13]: > 100 µM (inactive) | GI50 [14]: > 100 µM (inactive) | GI50 [15]: > 100 µM (inactive) | GI50 [19]: > 100 µM (inactive) | GI50 [17]: > 100 µM (inactive) | GI50 [18]: > 100 µM (inactive)

COC(=O)C(Cc1c[nH]c2ccccc12)NP(=O)(O)OCC1OC(n2cc(Br)c(=O)[nH]c2=O)CC1O (stereo unspecified)
GI50 [1]: > 100 µM (inactive) | GI50 [3]: > 100 µM (inactive) | GI50 [4]: > 100 µM (inactive) | GI50 [5]: > 100 µM (inactive) | GI50 [6]: > 100 µM | GI50 [7]: > 100 µM (inactive) | GI50 [8]: > 100 µM (inactive) | GI50 [9]: > 100 µM (inactive) | GI50 [10]: > 100 µM (inactive) | GI50 [11]: > 100 µM (inactive) | GI50 [12]: > 100 µM (inactive) | GI50 [13]: > 100 µM (inactive) | GI50 [14]: > 100 µM (inactive) | GI50 [15]: > 100 µM (inactive) | GI50 [16]: > 100 µM (inactive) | GI50 [19]: > 100 µM (inactive) | GI50 [17]: > 100 µM (inactive) | GI50 [18]: > 100 µM (inactive)

Cc1ccc(N2C(N)=C(C#N)C(C#N)(C#N)C2c2ccccc2)cc1 (stereo unspecified)
GI50 [1]: 17 µM (inactive) | GI50 [2]: 8.97 µM (inactive) | GI50 [3]: 10.2 µM (inactive) | GI50 [4]: 13 µM (inactive) | GI50 [5]: 3.79 µM (inactive) | GI50 [6]: 6.71 µM | GI50 [7]: 19.5 µM (inactive) | GI50 [8]: 3.97 µM (inactive) | GI50 [9]: 2.31 µM (inactive) | GI50 [11]: 13.4 µM (inactive) | GI50 [12]: 15.5 µM (inactive) | GI50 [13]: 20 µM (inactive) | GI50 [14]: 14.2 µM (inactive) | GI50 [15]: 14.4 µM (inactive) | GI50 [16]: 17.5 µM (inactive) | GI50 [19]: 13.2 µM (inactive) | GI50 [17]: 8.65 µM (inactive) | GI50 [18]: 15.8 µM (inactive)

COC(=O)c1csc(-c2csc(CCNC(=O)OC(C)(C)C)n2)n1
GI50 [1]: 26.1 µM (inactive) | GI50 [3]: > 100 µM (inactive) | GI50 [4]: > 100 µM (inactive) | GI50 [5]: > 100 µM (inactive) | GI50 [6]: > 100 µM | GI50 [7]: > 100 µM (inactive) | GI50 [8]: > 100 µM (inactive) | GI50 [9]: 42.7 µM (inactive) | GI50 [10]: > 100 µM (inactive) | GI50 [12]: > 100 µM (inactive) | GI50 [13]: > 100 µM (inactive) | GI50 [14]: > 100 µM (inactive) | GI50 [15]: > 100 µM (inactive) | GI50 [16]: > 100 µM (inactive) | GI50 [19]: 51.8 µM (inactive) | GI50 [17]: 59.7 µM (inactive) | GI50 [18]: > 100 µM (inactive)

O=C(O)[C@@H]1CCCN1 [PROLINE]
GI50 [1]: > 100 µM (inactive) | GI50 [3]: > 100 µM (inactive) | GI50 [4]: > 100 µM (inactive) | GI50 [5]: > 100 µM (inactive) | GI50 [6]: > 100 µM | GI50 [7]: > 100 µM (inactive) | GI50 [8]: > 100 µM (inactive) | GI50 [9]: > 100 µM (inactive) | GI50 [10]: > 100 µM (inactive) | GI50 [11]: > 100 µM (inactive) | GI50 [12]: > 100 µM (inactive) | GI50 [13]: > 100 µM (inactive) | GI50 [14]: > 100 µM (inactive) | GI50 [15]: > 100 µM (inactive) | GI50 [16]: > 100 µM (inactive) | GI50 [19]: 57.4 µM (inactive) | GI50 [17]: > 100 µM (inactive) | GI50 [18]: > 100 µM (inactive)
